From US20220169629A1, “PESTICIDALLY ACTIVE DIAZINE-AMIDE COMPOUNDS” (SYNGENTA CROP PROTECTION AG, priority 2019, published 2022)

Key:
Type in all cases: in vivo
[1] = tested on: Spodoptera littoralis (Egyptian cotton leaf worm); assay: Example B7: Spodoptera littoralis (Egyptian cotton leaf worm), sprayed cotton leaf discs, L1 larvae; settings: foliar, 72 h, application rate of 200 ppm, 3 days after infestation, L1 larvae on cotton leaf discs, read-out: control in at least one of the three categories (mortality, anti-feeding or growth inhibition)
Protocol: Example B7: Spodoptera littoralis (Egyptian Cotton Leaf Worm)
Cotton leaf discs were placed onto agar in 24-well microtiter plates and sprayed with aqueous test solutions prepared from 10′000 ppm DMSO stock solutions. After drying the leaf discs were infested with five L1 larvae. The samples were assessed for mortality, anti-feeding effect, and growth inhibition in comparison to untreated samples 3 days after infestation. Control of Spodoptera littoralis by a test sample is given when at least one of the categories mortality, anti-feedant effect, and growth inhibition is higher than the untreated sample.

[2] = tested on: Chilo suppressalis (striped rice stemborer); assay: Example B4: Chilo suppressalis (striped rice stemborer), artificial diet, L2 larvae; settings: 144 h, application rate of 200 ppm, 6 days after infestation, L2 larvae on artificial diet, read-out: control in at least one of the three categories (mortality, anti-feeding or growth inhibition)
Protocol: Example B4: Chilo suppressalis (Striped rice stemborer)
24-well microtiter plates with artificial diet were treated with aqueous test solutions prepared from 10′000 ppm DMSO stock solutions by pipetting. After drying, the plates were infested with L2 larvae (6-8 per well). The samples were assessed for mortality, anti-feeding effect, and growth inhibition in comparison to untreated samples 6 days after infestation. Control of Chilo suppressalis by a test sample is given when at least one of the categories mortality, anti-feedant effect, and growth inhibition is higher than the untreated sample.

[3] = tested on: Plutella xylostella (diamond back moth); assay: Example B5: Plutella xylostella (diamond back moth), artificial diet, 24-well, eggs; settings: 192 h, application rate of 200 ppm, 8 days after infestation, read-out: control in at least one of the two categories (mortality or growth inhibition)
Protocol: Example B5: Plutella xylostella (Diamond Back Moth)
24-well microtiter plates with artificial diet were treated with aqueous test solutions prepared from 10′000 ppm DMSO stock solutions by pipetting. After drying, Plutella eggs were pipetted through a plastic stencil onto a gel blotting paper and the plate was closed with it. The samples were assessed for mortality and growth inhibition in comparison to untreated samples 8 days after infestation.

[4] = tested on: Euschistus heros (neotropical brown stink bug); assay: Example B2: Euschistus heros (neotropical brown stink bug), sprayed soybean leaves, N2 nymphs; settings: 120 h, application rate of 200 ppm, 5 days after infestation, N2 nymphs on soybean leaves, read-out: control in at least one of the two categories (mortality or growth inhibition)
Protocol: Example B2: Euschistus heros (Neotropical Brown Stink Bug)
Soybean leaves on agar in 24-well microtiter plates were sprayed with aqueous test solutions prepared from 10′000 ppm DMSO stock solutions. After drying the leaves were infested with N2 nymphs. The samples were assessed for mortality and growth inhibition in comparison to untreated samples 5 days after infestation.

[5] = tested on: Plutella xylostella (diamondback moth); assay: Example B10: Plutella xylostella (diamondback moth), 96-well artificial diet; settings: 216 h, application rate of 500 ppm, 9 days after infestation, eggs/L1 larvae
Protocol: Example B10: Plutella xylostella (Diamondback Moth)
96-well microtiter plates containing artificial diet were treated with aqueous test solutions, prepared from 10′000 ppm DMSO stock solutions, by a liquid handling robot. After drying, eggs (˜30 per well) were infested onto a netted lid which was suspended above the diet. The eggs hatch and L1 larvae move down to the diet. The samples were assessed for mortality 9 days after infestation.

[6] = tested on: Diabrotica balteata (corn root worm); assay: Example B1: Diabrotica balteata (corn root worm), sprayed maize sprouts, L2 larvae; settings: 96 h, application rate of 200 ppm, 4 days after infestation, L2 larvae on maize sprouts, read-out: control in at least one of the two categories (mortality or growth inhibition)
Protocol: Example B1: Diabrotica Balteata (Corn Root Worm)
Maize sprouts placed onto an agar layer in 24-well microtiter plates were treated with aqueous test solutions prepared from 10′000 ppm DMSO stock solutions by spraying. After drying, the plates were infested with L2 larvae (6 to 10 per well). The samples were assessed for mortality and growth inhibition in comparison to untreated samples 4 days after infestation.

[7] = tested on: Myzus persicae (green peach aphid); assay: Example B6: Myzus persicae (green peach aphid), intrinsic activity; settings: 120 h, test rate of 12 ppm, 5 days after infestation, sucrose solution, infested pea seedlings
From the text: Example B6: Myzus persicae (Green Peach Aphid): Intrinsic Activity
Test compounds prepared from 10′000 ppm DMSO stock solutions were applied by pipette into 24-well microtiter plates and mixed with sucrose solution. The plates were closed with a stretched Parafilm. A plastic stencil with 24 holes was placed onto the plate and infested pea seedlings were placed directly on the Parafilm. The infested plate was closed with a gel blotting paper and another plastic stencil and then turned upside down. The samples were assessed for mortality 5 days after infestation.

CC(NC(=O)c1cc(OCC(F)F)cc(C(F)(F)F)c1)c1nccnc1-c1ncc(OCC(F)(F)F)cn1 (centres unmarked) [Compound P1, 3-(2,2-difluoroethoxy)-N-[1-[3-[5-(2,2,2-trifluoroethoxy)pyrimidin-2-yl]pyrazin-2-yl]ethyl]-5-(trifluoromethyl)benzamide]
≥ 80%: percent control (mortality, anti-feeding or growth inhibition) at 200 ppm [1] | control at 200 ppm [2] | percent control (mortality or growth inhibition) at 200 ppm [3] | percent control (mortality or growth inhibition) at 200 ppm [4]

CC(NC(=O)c1cc(OCC(F)(F)F)cc(C(F)(F)F)c1)c1nccnc1-c1ccc(C#N)cn1 (centres unmarked) [Compound P25, N-[1-[3-(5-cyano-2-pyridyl)pyrazin-2-yl]ethyl]-3-(2,2,2-trifluoroethoxy)-5-(trifluoromethyl)benzamide]
≥ 80%: percent control (mortality, anti-feeding or growth inhibition) at 200 ppm [1] | mortality at 500 ppm [5] | control at 200 ppm [2] | percent control (mortality or growth inhibition) at 200 ppm [3] | percent control (mortality or growth inhibition) at 200 ppm [6]

CC(NC(=O)c1cc(OC(F)F)cc(C(F)(F)F)c1)c1nccnc1-c1ncc(OCC(F)(F)F)cn1 (centres unmarked) [Compound P3, 3-(difluoromethoxy)-N-[1-[3-[5-(2,2,2-trifluoroethoxy)pyrimidin-2-yl]pyrazin-2-yl]ethyl]-5-(trifluoromethyl)benzamide]
≥ 80%: percent control (mortality, anti-feeding or growth inhibition) at 200 ppm [1] | control at 200 ppm [2] | mortality at 12 ppm [7] | percent control (mortality or growth inhibition) at 200 ppm [3] | percent control (mortality or growth inhibition) at 200 ppm [6] | percent control (mortality or growth inhibition) at 200 ppm [4]

CC(NC(=O)c1cc(SC(F)(F)F)cc(C(F)(F)F)c1)c1nccnc1-c1ncc(OCC(F)F)cn1 (centres unmarked) [Compound P29, N-[1-[3-[5-(2,2-difluoroethoxy)pyrimidin-2-yl]pyrazin-2-yl]ethyl]-3-(trifluoromethyl)-5-(trifluoromethylsulfanyl)benzamide]
≥ 80%: percent control (mortality, anti-feeding or growth inhibition) at 200 ppm [1] | mortality at 500 ppm [5] | control at 200 ppm [2] | percent control (mortality or growth inhibition) at 200 ppm [3] | percent control (mortality or growth inhibition) at 200 ppm [6]

CC(NC(=O)c1cc(OCC(F)(F)F)cc(C(F)(F)F)c1)c1nccnc1-c1ncc(OC(F)F)cn1 (centres unmarked) [Compound P30, N-[1-[3-[5-(difluoromethoxy)pyrimidin-2-yl]pyrazin-2-yl]ethyl]-3-(2,2,2-trifluoroethoxy)-5-(trifluoromethyl)benzamide]
≥ 80%: percent control (mortality, anti-feeding or growth inhibition) at 200 ppm [1] | mortality at 500 ppm [5] | control at 200 ppm [2] | percent control (mortality or growth inhibition) at 200 ppm [3] | percent control (mortality or growth inhibition) at 200 ppm [6]

CC(NC(=O)c1cc(C(F)(F)F)cc(C(F)(F)F)c1)c1nccnc1-c1ncc(OCC(F)F)cn1 (centres unmarked) [Compound P33, N-[1-[3-[5-(2,2-difluoroethoxy)pyrimidin-2-yl]pyrazin-2-yl]ethyl]-3,5-bis(trifluoromethyl)benzamide]
≥ 80%: percent control (mortality, anti-feeding or growth inhibition) at 200 ppm [1] | control at 200 ppm [2] | percent control (mortality or growth inhibition) at 200 ppm [3] | percent control (mortality or growth inhibition) at 200 ppm [6] | percent control (mortality or growth inhibition) at 200 ppm [4]

CC(NC(=O)c1cc(Br)cc(C(F)(F)F)c1)c1nccnc1-c1ccc(OCC(F)F)cn1 (centres unmarked) [Compound P19, 3-bromo-N-[1-[3-[5-(2,2-difluoroethoxy)-2-pyridyl]pyrazin-2-yl]ethyl]-5-(trifluoromethyl)benzamide]
≥ 80%: percent control (mortality, anti-feeding or growth inhibition) at 200 ppm [1] | mortality at 500 ppm [5] | control at 200 ppm [2] | percent control (mortality or growth inhibition) at 200 ppm [3] | percent control (mortality or growth inhibition) at 200 ppm [6]

CC(NC(=O)c1cc(OCC(F)(F)F)cc(C(F)(F)F)c1)c1nccnc1-c1ncc(OCC(F)(F)F)cn1 (centres unmarked) [Compound P5, 3-(2,2,2-trifluoroethoxy)-N-[1-[3-[5-(2,2,2-trifluoroethoxy)pyrimidin-2-yl]pyrazin-2-yl]ethyl]-5-(trifluoromethyl)benzamide]
≥ 80%: percent control (mortality, anti-feeding or growth inhibition) at 200 ppm [1] | control at 200 ppm [2] | percent control (mortality or growth inhibition) at 200 ppm [3] | percent control (mortality or growth inhibition) at 200 ppm [4]

CC(NC(=O)c1cc(OC(F)F)cc(C(F)(F)F)c1)c1nccnc1-c1ccc(OCC(F)F)cn1 (centres unmarked) [Compound P13, N-[1-[3-[5-(2,2-difluoroethoxy)-2-pyridyl]pyrazin-2-yl]ethyl]-3-(difluoromethoxy)-5-(trifluoromethyl)benzamide]
≥ 80%: percent control (mortality, anti-feeding or growth inhibition) at 200 ppm [1] | mortality at 500 ppm [5] | control at 200 ppm [2] | percent control (mortality or growth inhibition) at 200 ppm [3] | percent control (mortality or growth inhibition) at 200 ppm [6]

CC(NC(=O)c1cc(OCC(F)F)cc(C(F)(F)F)c1)c1nccnc1-c1ncc(OC(F)F)cn1 (centres unmarked) [Compound P27, 3-(2,2-difluoroethoxy)-N-[1-[3-[5-(difluoromethoxy)pyrimidin-2-yl]pyrazin-2-yl]ethyl]-5-(trifluoromethyl)benzamide]
≥ 80%: percent control (mortality, anti-feeding or growth inhibition) at 200 ppm [1] | mortality at 500 ppm [5] | control at 200 ppm [2] | mortality at 12 ppm [7] | percent control (mortality or growth inhibition) at 200 ppm [3]

CC(NC(=O)c1cc(OCC(F)(F)F)cc(C(F)(F)F)c1)c1nccnc1-c1ccc(OCC(F)F)cn1 (centres unmarked) [Compound P15, N-[1-[3-[5-(2,2-difluoroethoxy)-2-pyridyl]pyrazin-2-yl]ethyl]-3-(2,2,2-trifluoroethoxy)-5-(trifluoromethyl)benzamide]
≥ 80%: percent control (mortality, anti-feeding or growth inhibition) at 200 ppm [1] | mortality at 500 ppm [5] | control at 200 ppm [2] | percent control (mortality or growth inhibition) at 200 ppm [3] | percent control (mortality or growth inhibition) at 200 ppm [6]

CC(NC(=O)c1cc(Cl)cc(C(F)(F)F)c1)c1nccnc1-c1ccc(OCC(F)(F)F)cn1 (centres unmarked) [Compound P21, 3-chloro-N-[1-[3-[5-(2,2,2-trifluoroethoxy)-2-pyridyl]pyrazin-2-yl]ethyl]-5-(trifluoromethyl)benzamide]
≥ 80%: percent control (mortality, anti-feeding or growth inhibition) at 200 ppm [1] | mortality at 500 ppm [5] | control at 200 ppm [2] | percent control (mortality or growth inhibition) at 200 ppm [3] | percent control (mortality or growth inhibition) at 200 ppm [6]
